This passage reports solubility, Ki and EC50 results from patent US20240279278A1, “NMU RECEPTOR 2 AGONISTS” (Boehringer Ingelheim International GmbH, priority 2023, published 2024).

Values after ≈ are worked out from the molar mass of the structure shown. Residues, ends and D or L forms follow the SMILES beside them.

Series [1] is described as follows: physchem. Type of series: physicochemical. In a few lines:
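Peptide TFA salts were shaken at a nominal 10 mg/mL in 0.1 M phosphate buffer, pH 6 to 8, for 2 h at room temperature and then filtered. Reversed-phase HPLC peak area was compared with a 1 mg/mL control in buffer or DMSO to give solubility. The pH of each sample was recorded.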

Series [2] addresses T1, human NMUR1 receptor (Homo sapiens, UniProt Q9HB89).
T1 construct: host or cells: CHO-K1
T1 sequence (Q9HB89 24-426 limits assumed): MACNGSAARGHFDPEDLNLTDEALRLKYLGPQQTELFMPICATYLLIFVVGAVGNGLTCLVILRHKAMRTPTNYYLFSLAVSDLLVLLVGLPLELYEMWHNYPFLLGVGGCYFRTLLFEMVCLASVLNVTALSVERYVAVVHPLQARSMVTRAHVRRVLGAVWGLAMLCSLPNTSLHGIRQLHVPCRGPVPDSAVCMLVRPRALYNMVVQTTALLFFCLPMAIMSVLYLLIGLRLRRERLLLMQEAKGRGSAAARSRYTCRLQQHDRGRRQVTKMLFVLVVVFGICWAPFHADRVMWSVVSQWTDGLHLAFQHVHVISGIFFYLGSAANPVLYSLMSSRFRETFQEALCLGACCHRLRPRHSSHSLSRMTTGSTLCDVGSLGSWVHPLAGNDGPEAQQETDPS
Nature of the series: Radioligand binding competition assay (RLB), human NMUR1 receptor binding (SPA, [125I]-Neuromedin U-25). The settings on record: CHO-K1 hNMUR1 cell membranes, 4 hours at RT. The text has this:
Example 2: Radioligand Binding Competition Assay (RLB) Human NMUR1 Receptor Binding 1) Membranes The test is based on membranes prepared from a human NMUR1/Apoaequorin Stable Cell Line (Creative Biogene, Cat. No. CSC-RG1308). Cell Line Description: CHO-NMUR1 cell line is clonally-derived from a CHO-K1 cell line, which has been transfected with a bicistronic expression plasmid containing the sequence coding for the human neuromedin U receptor 1 (NM_006056.4, 180 to 1391). Mosaic-ID: CL16550614 Membrane preparation: Cells were broken by nitrogen cavitation (900 psi, 1 hour). Intact cells were removed by centrifugation (400 rcf, 10 minutes, 4° C.) before the crude membrane fraction was collected by ultracentrifugation (20.000 rcf, 1 hour, 4° C.). 2) Human NMUR1 Receptor Binding Assay (Radioligand: [125l]-Neuromedin U-25) In this Scintillation Proximity Assay (SPA) design, the membranes immobilize directly to the PVT-WGA-PEI type A beads (polyethyleneimine treated polyvinyltoluene beads coupled to wheatgerm agglutinin, Perkin Elmer) via interactions of wheat germ agglutinate and glycosylated membrane structures. Thereby the radioactively la-belled ligand, bound to NMUR1 receptors on the membrane, comes in close proximity to the solid scintillator of the PVT bead. Radioactive human neuromedin U-25 then stimulates the scintillant to emit light. In contrast, radioligand not bound to the receptor is too distant from the bead to elicit a signal. For the Scintillation Proximity Assay the CHO-K1 hNMUR1 cell membranes and SPA-beads are diluted to concentrations, which assure a robust signal to background ratio. The SPA incubation buffer consists of 25 mM Hepes (pH=7.0), 5 mM MgCl2, 1 mM CaCl2, 10 ug/mL Saponine and 0.1% bovine serum albumin and is used for all dilutions. Final assay setup in 96-well plate: 20 μL of 10× test compound dilutions+40 μL of 5× [125l]-Neuromedin U-25 (1× approx. 30 pM; 2000 μCi/mmol (μCi=microcurie))+60 μL membrane dilution (approx. 1.0 μg membrane protein)+80 μL SPA bead dilution (250 μg). The assay is incubated for 4 hours at RT, including controls for specific binding where no displacer is added and non-specific binding by adding unlabeled hNMU-25 at 100 nM. Bound radioactivity is determined by scintillation counting (MicroBeta Trilux 1450, Perkin Elmer, detection of 125I decay). […] The system assumes one binding site with no relevant radioligand depletion (<10%) and that the binding is reversible and at equilibrium. [formula] [formula]

Series [3] has as its target human NMUR2 receptor (Homo sapiens, UniProt Q9GZQ4). The series is described as follows: IP1 Gq HTRF assay, activation of human NMUR2 in human plasma. In kind it is cell-based. More on the design: expressed in transfected cells; host or cells: CHO-K1. The following applies: CHO-K1 cells expressing human NMUR2, 100% human plasma; read-out: EC50 (hNMUR2) human plasma. The gist of the method:
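EC50 obtained via 4-parameter sigmoidal regression of HTRF IP-One signal (665 nm/620 nm), which falls as intracellular IP1 rises. Stimulation: 1 h, 37° C, peptides in human plasma plus 50 mM LiCl, 1% DMSO final, on NMUR2-expressing CHO-K1 cells, 8 concentrations.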
(In general: TR-FRET usually uses a lanthanide donor and a delayed reading to cut background.)

human NMUR2 receptor, sequence (Q9GZQ4 whole entry): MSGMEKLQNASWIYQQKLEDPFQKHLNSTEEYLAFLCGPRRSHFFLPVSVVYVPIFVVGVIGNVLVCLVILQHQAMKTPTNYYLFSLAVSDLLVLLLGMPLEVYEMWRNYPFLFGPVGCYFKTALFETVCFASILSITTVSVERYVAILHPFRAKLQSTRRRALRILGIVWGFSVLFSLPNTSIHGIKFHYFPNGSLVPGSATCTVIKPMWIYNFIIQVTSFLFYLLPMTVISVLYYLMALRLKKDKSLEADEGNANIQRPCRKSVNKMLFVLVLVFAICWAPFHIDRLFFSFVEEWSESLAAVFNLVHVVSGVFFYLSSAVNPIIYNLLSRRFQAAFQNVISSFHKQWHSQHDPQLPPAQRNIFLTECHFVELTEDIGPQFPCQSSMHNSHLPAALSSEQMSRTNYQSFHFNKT

In general, solubility refers to how much of the substance goes into solution per volume. Higher therefore signals a readily soluble substance. The Ki is the dissociation constant of the complex between target and ligand, obtained from inhibition or displacement. High values mean lower affinity, low ones higher affinity. A word on the EC50: it is the concentration at which the effect is half-maximal. For `CCCC[C@H](NC(=O)[C@H](CC(C)C)N(C)C(=O)[C@H](Cc1ccccc1)NC(=O)[C@H](Cc1ccc(O)cc1)NC(=O)CN1CCN(CCNC(=O)CN(C)C(=O)CN(C)C(=O)CN(C)C(=O)CN(C)C(=O)CN(C)C(=O)CN(C)C(=O)CN(C)C(=O)CN(C)C(=O)CN(C)C(=O)CN(C)C(=O)CN(C)C(=O)CN(C)C(=O)CN(C)C(=O)CN(C)C(=O)CN(C)C(=O)CC[C@H](NC(=O)CC[C@H](NC(=O)CC[C@H](NC(=O)CCCCCCCCCCCCCCCCC(=O)O)C(=O)O)C(=O)O)C(=O)O)CC1)C(=O)N[C@@H](CCN)C(=O)N(C)[C@@H](C)C(=O)N[C@@H](CCCNC(=N)N)C(=O)NCC(N)=O` [Compound 23, C18DA-gGlu3-Sar15-AEPipAc-Tyr-Phe-NMeLeu-Nle-Dbu-NMeAla-Arg-Gly-NH2] (HELM PEPTIDE1{[O=C(O)CCCCCCCCCCCCCCCCC(=O)[*:2]].[gGlu].[gGlu].[gGlu].[Sar].[Sar].[Sar].[Sar].[Sar].[Sar].[Sar].[Sar].[Sar].[Sar].[Sar].[Sar].[Sar].[Sar].[Sar].[O=C(CN1CCN(CCN[*:1])CC1)[*:2]].Y.F.[meL].[Nle].[Dab].[meA].R.G.[am]}$$$$V2.0), the concentration in solution in series [1] (pH 7.3) (solubility at 2 h) was 8900 µg/mL (≈ 3.08 mM). Moreover, in series [2], the Ki is over 10000 nM. Moreover, in series [3], the EC50 was determined as 11.1 nM.

In series [1] (pH 7.3), `CCCC[C@H](NC(=O)[C@H](CC(C)C)N(C)C(=O)[C@H](Cc1ccccc1)NC(=O)[C@H](Cc1ccc(O)cc1)NC(=O)CN1CCN(CCNC(=O)CN(C)C(=O)CN(C)C(=O)CN(C)C(=O)CN(C)C(=O)CN(C)C(=O)CN(C)C(=O)CN(C)C(=O)CN(C)C(=O)CN(C)C(=O)CC[C@H](NC(=O)CC[C@H](NC(=O)CC[C@H](NC(=O)CCCCCCCCCCCCCCCCC(=O)O)C(=O)O)C(=O)O)C(=O)O)CC1)C(=O)N[C@@H](CCN)C(=O)N1CCC[C@H]1C(=O)N[C@@H](CCCNC(=N)N)C(=O)NCC(N)=O` [Compound 24, C18DA-gGlu3-Sar9-AEPipAc-Tyr-Phe-NMeLeu-Nle-Dbu-Pro-Arg-Gly-NH2] (HELM PEPTIDE1{[O=C(O)CCCCCCCCCCCCCCCCC(=O)[*:2]].[gGlu].[gGlu].[gGlu].[Sar].[Sar].[Sar].[Sar].[Sar].[Sar].[Sar].[Sar].[Sar].[O=C(CN1CCN(CCN[*:1])CC1)[*:2]].Y.F.[meL].[Nle].[Dab].P.R.G.[am]}$$$$V2.0) registered a solubility at 2 h of 9500 µg/mL (≈ 3.84 mM). In series [2], the Ki was over 10000 nM. In series [3], the half-maximal effective concentration (EC50) turned out to be 12.6 nM.

Regarding `CCCC[C@H](NC(=O)[C@H](CC(C)C)N(C)C(=O)[C@H](Cc1ccccc1)NC(=O)[C@H](Cc1ccc(O)cc1)NC(=O)CN1CCN(CCNC(=O)CN(C)C(=O)CN(C)C(=O)CN(C)C(=O)CN(C)C(=O)CN(C)C(=O)CN(C)C(=O)CN(C)C(=O)CN(C)C(=O)CN(C)C(=O)CN(C)C(=O)CN(C)C(=O)CN(C)C(=O)CC[C@H](NC(=O)CC[C@H](NC(=O)CC[C@H](NC(=O)CCCCCCCCCCCCCCCCC(=O)O)C(=O)O)C(=O)O)C(=O)O)CC1)C(=O)N[C@@H](CCCNC(=N)N)C(=O)N1CCC[C@H]1C(=O)N[C@@H](CCCNC(=N)N)C(=O)NCC(N)=O` [Compound 25, C18DA-gGlu3-Sar12-AEPipAc-Tyr-Phe-NMeLeu-Nle-Arg-Pro-Arg-Gly-NH2], in series [1] (pH 7.2), the solubility at 2 h came to 10000 µg/mL (≈ 3.65 mM). The Ki in series [2] was over 10000 nM. Besides, the half-maximal effective concentration (EC50) in series [3] was determined as 8.6 nM.

`CCCC[C@H](NC(=O)[C@H](CC(C)C)N(C)C(=O)[C@H](Cc1ccccc1)NC(=O)[C@H](Cc1ccc(O)cc1)NC(=O)CN1CCN(CCNC(=O)CN(C)C(=O)CN(C)C(=O)CN(C)C(=O)CN(C)C(=O)CN(C)C(=O)CN(C)C(=O)CN(C)C(=O)CN(C)C(=O)CN(C)C(=O)CN(C)C(=O)CN(C)C(=O)CN(C)C(=O)CN(C)C(=O)CN(C)C(=O)CN(C)C(=O)CC[C@H](NC(=O)CC[C@H](NC(=O)CC[C@H](NC(=O)CCCCCCCCCCCCCCCCC(=O)O)C(=O)O)C(=O)O)C(=O)O)CC1)C(=O)N[C@@H](CCN)C(=O)N1CCC[C@H]1C(=O)N[C@@H](CCCNC(=N)N)C(=O)NCC(N)=O` [Compound 26, C18DA-gGlu3-Sar15-AEPipAc-Tyr-Phe-NMeLeu-Nle-Dbu-Pro-Arg-Gly-NH2] (HELM PEPTIDE1{[O=C(O)CCCCCCCCCCCCCCCCC(=O)[*:2]].[gGlu].[gGlu].[gGlu].[Sar].[Sar].[Sar].[Sar].[Sar].[Sar].[Sar].[Sar].[Sar].[Sar].[Sar].[Sar].[Sar].[Sar].[Sar].[O=C(CN1CCN(CCN[*:1])CC1)[*:2]].Y.F.[meL].[Nle].[Dab].P.R.G.[am]}$$$$V2.0) displayed a solubility at 2 h in series [1] (pH 7.3) of 7700 µg/mL (≈ 2.66 mM). In series [2], this compound yielded a Ki of over 10000 nM. Further, the EC50 in series [3] came out at 3.9 nM.

For `CCCC[C@H](NC(=O)[C@H](CC(C)C)N(C)C(=O)[C@H](Cc1ccccc1)NC(=O)[C@H](Cc1ccc(O)cc1)NC(=O)CN1CCN(CCNC(=O)CN(C)C(=O)CN(C)C(=O)CN(C)C(=O)CN(C)C(=O)CN(C)C(=O)CN(C)C(=O)CN(C)C(=O)CN(C)C(=O)CN(C)C(=O)CN(C)C(=O)CN(C)C(=O)CN(C)C(=O)CC[C@H](NC(=O)CC[C@H](NC(=O)CC[C@H](NC(=O)CCCCCCCCCCCCCCCCC(=O)O)C(=O)O)C(=O)O)C(=O)O)CC1)C(=O)N[C@@H](CCN)C(=O)N1CCC[C@H]1C(=O)N[C@@H](CCCNC(=N)N)C(=O)NCC(N)=O` [Compound 27, C18DA-gGlu3-Sar12-AEPipAc-Tyr-Phe-NMeLeu-Nle-Dbu-Pro-Arg-Gly-NH2], the solubility at 2 h in series [1] (pH 7.2) is 8800 µg/mL (≈ 3.28 mM). For the same compound, the Ki in series [2] is over 10000 nM. Moreover, in series [3], the EC50 worked out at 6.9 nM.

In series [1] (pH 7.2), `CCCC[C@H](NC(=O)[C@H](CC(C)C)N(C)C(=O)[C@H](Cc1ccccc1)NC(=O)[C@H](Cc1ccc(O)cc1)NC(=O)CN1CCN(CCNC(=O)CN(C)C(=O)CN(C)C(=O)CN(C)C(=O)CN(C)C(=O)CN(C)C(=O)CN(C)C(=O)CN(C)C(=O)CN(C)C(=O)CN(C)C(=O)CC[C@H](NC(=O)CC[C@H](NC(=O)CC[C@H](NC(=O)CCCCCCCCCCCCCCCCC(=O)O)C(=O)O)C(=O)O)C(=O)O)CC1)C(=O)N[C@@H](CCN)C(=O)N(C)[C@@H](C)C(=O)N[C@@H](CCCNC(=N)N)C(=O)NCC(N)=O` [Compound 28, C18DA-gGlu3-Sar9-AEPipAc-Tyr-Phe-NMeLeu-Nle-Dbu-NMeAla-Arg-Gly-NH2] (HELM PEPTIDE1{[O=C(O)CCCCCCCCCCCCCCCCC(=O)[*:2]].[gGlu].[gGlu].[gGlu].[Sar].[Sar].[Sar].[Sar].[Sar].[Sar].[Sar].[Sar].[Sar].[O=C(CN1CCN(CCN[*:1])CC1)[*:2]].Y.F.[meL].[Nle].[Dab].[meA].R.G.[am]}$$$$V2.0) showed a solubility at 2 h of 8500 µg/mL (≈ 3.46 mM). Also, the Ki in series [2] is over 10000 nM. Further, the EC50 in series [3] was 10.8 nM.

The compound `CCCC[C@H](NC(=O)[C@H](CC(C)C)N(C)C(=O)[C@H](Cc1ccccc1)NC(=O)[C@H](Cc1ccc(O)cc1)NC(=O)CN1CCN(CCNC(=O)CN(C)C(=O)CN(C)C(=O)CN(C)C(=O)CN(C)C(=O)CN(C)C(=O)CN(C)C(=O)CN(C)C(=O)CN(C)C(=O)CN(C)C(=O)CN(C)C(=O)CN(C)C(=O)CN(C)C(=O)CC[C@H](NC(=O)CC[C@H](NC(=O)CC[C@H](NC(=O)CCCCCCCCCCCCCCCCC(=O)O)C(=O)O)C(=O)O)C(=O)O)CC1)C(=O)N[C@@H](CCN)C(=O)N(C)[C@@H](C)C(=O)N[C@@H](CCCNC(=N)N)C(=O)NCC(N)=O` [Compound 38, C18DA-gGlu3-Sar12-AEPipAc-Tyr-Phe-NMeLeu-Nle-Dbu-NMeAla-Arg-Gly-NH2] gave a solubility at 2 h in series [1] (pH 7.2) of 8800 µg/mL (≈ 3.29 mM). The compound also had a Ki in series [2] of over 10000 nM. Also, the EC50 in series [3] came to 9.7 nM.
